Our source for the T/C values is PubChem BioAssay AID296 (DTP/NCI, 2004).

SMILES strings stand for the structures. Where “and” joins values, the source holds several entries; their conditions need not be identical. Equal entries are not always repeated. Inconclusive results are not listed.

This experiment concerns MX-1 breast xenograft, nude mice, tumor weight T/C. The experiment is described as follows: NCI In Vivo Anticancer Drug Screen. Data for tumor model Human Mammary Carcinoma MX-1 Xenograft (intrarenal inoculation) in NU/NU Swiss (nude) mice. The following applies: endpoint: mean tumor weight change, higher = larger tumour. In a few lines:
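Activity is given as a ratio, with each measurement in the compound-treated arm divided by the matching measurement in vehicle-dosed controls. Tumour size or survival serves as the measured parameter.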

Where [1] appears, read: dose: 300.0 mg/kg/injection, schedule: Q04DX003 (sc), vehicle: saline with Tween-80.
The mark [2] stands for this setting: dose: 600.0 mg/kg/injection, schedule: Q04DX003 (sc), vehicle: saline with Tween-80.
Where [3] appears, read: dose: 1200.0 mg/kg/injection, schedule: Q04DX003 (sc), vehicle: saline with Tween-80.
[4] abbreviates: dose: 2400.0 mg/kg/injection, schedule: Q04DX003 (sc), vehicle: saline with Tween-80.
The mark [5] stands for this setting: dose: 37.5 mg/kg/injection, schedule: Q04DX003 (sc), vehicle: saline with Tween-80.
The mark [6] stands for this setting: dose: 75.0 mg/kg/injection, schedule: Q04DX003 (sc), vehicle: saline with Tween-80.
Setting [7] is: dose: 150.0 mg/kg/injection, schedule: Q04DX003 (sc), vehicle: saline with Tween-80.
Where [8] appears, read: dose: 200.0 mg/kg/injection, schedule: Q04DX003 (sc), vehicle: Klucel (hydroxypropylcellulose) (HPC).
Setting [9] is: dose: 400.0 mg/kg/injection, schedule: Q04DX003 (sc), vehicle: Klucel (hydroxypropylcellulose) (HPC).

`C1CCC2[N-]CC3CCCCC3[N-]CC3CCCCC3[N-]CC3CCCCC3[N-]CC2C1.[Cu]` (centres undefined): the T/C was 47 % of control (dose: 3.13 mg/kg/injection, schedule: Q01DX010 (sc), vehicle: Klucel (hydroxypropylcellulose) (HPC)); 193 % of control (dose: 6.25 mg/kg/injection, schedule: Q01DX010 (sc), vehicle: Klucel (hydroxypropylcellulose) (HPC)); 178 % of control (dose: 12.5 mg/kg/injection, schedule: Q01DX010 (sc), vehicle: Klucel (hydroxypropylcellulose) (HPC)); 113 % of control (dose: 25.0 mg/kg/injection, schedule: Q01DX010 (sc), vehicle: Klucel (hydroxypropylcellulose) (HPC)).

As for `CONc1ccn(C2OC(CO)C(O)C2O)c(=O)n1` (centres undefined), the T/C reads like this: (dose: 300.0 mg/kg/injection, schedule: Q04DX003 (sc), vehicle: saline) 86 % of control; (dose: 600.0 mg/kg/injection, schedule: Q04DX003 (sc), vehicle: saline) 74 % of control; (dose: 1200.0 mg/kg/injection, schedule: Q04DX003 (sc), vehicle: saline) 107 % of control; (dose: 2400.0 mg/kg/injection, schedule: Q04DX003 (sc), vehicle: saline) 77 % of control.

With `O=C(c1cccnc1)c1cc(-c2ccccn2)c(=O)n2ccccc12`, the T/C by setting is: under setting [1], 66 % of control; under setting [2], 103 % of control; under setting [3], 81 % of control; under setting [4], 120 % of control.

As to `CCC(=O)O[C@H]1CC[C@H]2[C@@H]3CCC4=CC(=O)CC[C@]4(C)[C@H]3CC[C@]12C`, the T/C is 76 % of control (dose: 300.0 mg/kg/injection, schedule: Q04DX003 (sc), vehicle: Klucel (hydroxypropylcellulose) (HPC)); 88 % of control (dose: 600.0 mg/kg/injection, schedule: Q04DX003 (sc), vehicle: Klucel (hydroxypropylcellulose) (HPC)); 74 % of control (dose: 1200.0 mg/kg/injection, schedule: Q04DX003 (sc), vehicle: Klucel (hydroxypropylcellulose) (HPC)); 115 % of control (dose: 2400.0 mg/kg/injection, schedule: Q04DX003 (sc), vehicle: Klucel (hydroxypropylcellulose) (HPC)).

With `CS(=O)(=O)OCCN(CCOS(C)(=O)=O)c1ccc(C=O)cc1`, the T/C (dose: 25.0 mg/kg/injection, schedule: Q01DX010 (sc), vehicle: saline) is -67 % of control and -51 % of control.

Take `CCOC(=O)Nc1cc2c(c(N)n1)N=C(c1ccc(Cl)cc1Cl)CN2`: the T/C reads like this: under setting [5], 79 % of control; under setting [6], 94 % of control; under setting [7], 103 % of control and 117 % of control; under setting [1], 81 % of control and 84 % of control.

Regarding `CCCCCC#CC1OC12CCCCC2` (centres undefined), the T/C under setting [1] was 83 % of control, the T/C under setting [2] is 101 % of control, the T/C under setting [3] is 83 % of control and the T/C under setting [4] is 78 % of control.

For the compound `O=c1[nH]cnc2c1ccn2C1OC(CO)C(O)C1O` (centres undefined), the T/C is, setting by setting: (dose: 12.5 mg/kg/injection, schedule: Q04DX003 (sc), vehicle: saline) 57 % of control; (dose: 25.0 mg/kg/injection, schedule: Q04DX003 (sc), vehicle: saline) 71 % of control.

For the compound `CCC(C(=O)O)C(=O)O.[NH-]CC1CCCC[N-]1.[Pt+2]`, the T/C reads like this: (dose: 100.0 mg/kg/injection, schedule: Q04DX003 (sc), vehicle: saline) 51 % of control; (dose: 200.0 mg/kg/injection, schedule: Q04DX003 (sc), vehicle: saline with Tween-80) -98 % of control; (dose: 200.0 mg/kg/injection, schedule: Q04DX003 (sc), vehicle: saline) 20 % of control; under setting [1], -98 % of control; (dose: 300.0 mg/kg/injection, schedule: Q04DX003 (sc), vehicle: suspension in saline) 14 % of control and 26 % of control; (dose: 400.0 mg/kg/injection, schedule: Q04DX003 (sc), vehicle: saline with Tween-80) -100 % of control. Further, the T/C (dose: 400.0 mg/kg/injection, schedule: Q04DX003 (sc), vehicle: saline) was 2 % of control; the T/C (dose: 400.0 mg/kg/injection, schedule: Q04DX003 (sc), vehicle: suspension in saline) was 28 % of control and 32 % of control; the T/C (dose: 500.0 mg/kg/injection, schedule: Q04DX003 (sc), vehicle: saline with Tween-80) was -100 % of control; the T/C (dose: 500.0 mg/kg/injection, schedule: Q04DX003 (sc), vehicle: suspension in saline) was 3 % of control and 20 % of control.

With `COC1=CC(=O)C(OC)=C(OC)C1=O`, the T/C is 86 % of control under setting [5] and 93 % of control under setting [7].

Turning to `CCCCCCNc1nc(NCCCCCC)c2[nH]c(NCCCCCC)nc2n1`, where the note is “dose: 300.0 mg/kg/injection, schedule: Q04DX003 (ip), vehicle: saline with Tween-80”, the T/C is 75 % of control.

Consider `COc1cc(C[C@H]2c3cc(OC)c(OC)cc3CCN2C)c(Oc2cc3c(cc2OC)-c2c(OC)c(OC)cc4c2[C@H](C3)N(C)CC4)cc1OC`, for which the T/C (dose: 100.0 mg/kg/injection, schedule: Q01DX010 (sc), vehicle: saline with Tween-80) is 95 % of control; the T/C (dose: 200.0 mg/kg/injection, schedule: Q01DX010 (sc), vehicle: saline with Tween-80) is 67 % of control; the T/C (dose: 400.0 mg/kg/injection, schedule: Q01DX010 (sc), vehicle: saline with Tween-80) was 75 % of control; the T/C (dose: 800.0 mg/kg/injection, schedule: Q01DX010 (sc), vehicle: saline with Tween-80) is 71 % of control.

For `COc1ccc2[nH]c3ccc4cc[n+](CCN5CCC(C6CCN(CC[n+]7ccc8ccc9[nH]c%10ccc(OC)cc%10c9c8c7)CC6)CC5)cc4c3c2c1`, the T/C under setting [8] is 108 % of control; the T/C under setting [9] was 80 % of control; the T/C (dose: 800.0 mg/kg/injection, schedule: Q04DX003 (sc), vehicle: Klucel (hydroxypropylcellulose) (HPC)) is 99 % of control; the T/C (dose: 1600.0 mg/kg/injection, schedule: Q04DX003 (sc), vehicle: Klucel (hydroxypropylcellulose) (HPC)) is 80 % of control.

In the case of `CC[C@@H](C)[C@@H]1NC(=O)C(NC(=O)C(CC(C)C)N(C)C(=O)C2CCCN2C(=O)C(C)O)C(C)OC(=O)C(Cc2ccc(OC)cc2)N(C)C(=O)C2CCCN2C(=O)C(CC(C)C)NC(=O)C(C)C(=O)C(C(C)C)OC(=O)C[C@H]1O` (some centres undefined), the T/C is 91 % of control (dose: 300.0 micrograms/kg/injection, schedule: Q04DX003 (sc), vehicle: distilled water + alcohol); 157 % of control (dose: 600.0 micrograms/kg/injection, schedule: Q04DX003 (sc), vehicle: distilled water + alcohol); 27 % of control (dose: 1200.0 micrograms/kg/injection, schedule: Q04DX003 (sc), vehicle: distilled water + alcohol).

With `Cc1c2ccc3ccccc3c2c[n+]2ccccc12`, the T/C is, setting by setting: (dose: 9.38 mg/kg/injection, schedule: Q04DX003 (sc), vehicle: Klucel (hydroxypropylcellulose) (HPC)) 75 % of control; (dose: 18.75 mg/kg/injection, schedule: Q04DX003 (sc), vehicle: Klucel (hydroxypropylcellulose) (HPC)) 77 % of control.

For `CC(=O)NC(CCc1ccc(Cl)c(Cl)c1)c1cccc(O)c(=O)c1` (centres undefined), the T/C reads like this: (dose: 50.0 mg/kg/injection, schedule: Q04DX003 (sc), vehicle: Klucel (hydroxypropylcellulose) (HPC)) 95 % of control; (dose: 100.0 mg/kg/injection, schedule: Q04DX003 (sc), vehicle: Klucel (hydroxypropylcellulose) (HPC)) 69 % of control; under setting [8], 90 % of control; under setting [9], 119 % of control.

With `N#CN=[N+]([O-])c1ccc(C(=O)O)cc1`, the T/C (dose: 11.25 mg/kg/injection, schedule: Q04DX003 (sc), vehicle: Klucel (hydroxypropylcellulose) (HPC)) was 124 % of control; the T/C (dose: 22.5 mg/kg/injection, schedule: Q04DX003 (sc), vehicle: Klucel (hydroxypropylcellulose) (HPC)) is 87 % of control; the T/C (dose: 45.0 mg/kg/injection, schedule: Q04DX003 (sc), vehicle: Klucel (hydroxypropylcellulose) (HPC)) is 103 % of control.

Turning to `ClCCCCCCCCCCc1ccccc1`, the T/C runs as follows: (dose: 100.0 mg/kg/injection, schedule: Q01DX010 (sc), vehicle: Klucel (hydroxypropylcellulose) (HPC)) 89 % of control; (dose: 200.0 mg/kg/injection, schedule: Q01DX010 (sc), vehicle: Klucel (hydroxypropylcellulose) (HPC)) 44 % of control; (dose: 400.0 mg/kg/injection, schedule: Q01DX010 (sc), vehicle: Klucel (hydroxypropylcellulose) (HPC)) 116 % of control; (dose: 800.0 mg/kg/injection, schedule: Q01DX010 (sc), vehicle: Klucel (hydroxypropylcellulose) (HPC)) 93 % of control.

On to `Nc1nc(N)c2c(ccc3c2ccn3Cc2cccc([N+](=O)[O-])c2)n1`, for which the T/C was 98 % of control under setting [5] and 94 % of control under setting [6].

As to `C[PH+](C)C.C[PH+](C)C.[Au]`, the T/C was 157 % of control (dose: 5.0 mg/kg/injection, schedule: Q04DX003 (sc), vehicle: suspension in saline); 156 % of control (dose: 10.0 mg/kg/injection, schedule: Q04DX003 (sc), vehicle: suspension in saline); 160 % of control (dose: 20.0 mg/kg/injection, schedule: Q04DX003 (sc), vehicle: suspension in saline).
